According to PMC11044151, “Development of Half-Sandwich Ru, Os, Rh, and Ir Complexes Bearing the Pyridine-2-ylmethanimine Bidentate Ligand Derived from 7-Chloroquinazolin-4(3H)-one with Enhanced Antiproliferative Activity” (ACS Omega, 2024):

Tests used:
SW620V = assay: Neutral red uptake antiproliferative assay, MDR line SW620V; assay type: cell-based, human; details: for IC50: exposure time 72 h, n = 3, ABCB1-overexpressing MDR line; for activity factor IC50(1)/IC50(3a–4d), SW620V: vs corresponding amine (R)-1 or (S)-1, 72 h
Source text: (§1) Next, we evaluated the cytotoxicity of the synthesized complexes toward the panel of six multidrug-resistant (MDR) cell lines derived from SW620 and characterized by the overexpression of various ABC proteins, namely, ABCG2 (SW620C and SW620Mito), ABCC1 (SW620M and SW620E), and ABCB1 (SW620D, SW620E, and SW620V) (Table 3, Figures S29 and S32). […] The activity of the complexes derived from the ligand (S)-2 is also considerably higher than that of the compounds containing the ligand (R)-2. The cytotoxicity of both rhodium 4c and iridium 4d complexes is higher than that of amine (S)-1. In the case of 4c, the increase in cytotoxicity is low, with the highest value of 3.7-fold for the SW620Mito line. […] Compound 4d also exerts a 2.1- and 2.6-fold higher cytotoxicity than […] against the SW620C and SW620D lines.
(§2) For this purpose, neutral red uptake assay was performed. […] The results were presented as a percentage of control.

SW620C = assay: Neutral red uptake antiproliferative assay, MDR line SW620C; assay type: cell-based, human; details: for IC50: exposure time 72 h, n = 3, ABCG2-overexpressing MDR line; for activity factor IC50(1)/IC50(3a–4d), SW620C: vs corresponding amine (R)-1 or (S)-1, 72 h
Source text: as §1, §2

SW620 cells [1] = assay: ROS generation, dihydrorhodamine 123 oxidation assay; assay type: cell-based, human; details: SW620, 1 μM compound, 4 h, DHR123 with 10 μM verapamil; vs control or (R)- and (S)-1
Source text: Metal complexes often induce reactive oxygen species (ROS) generation in cells,[51] which may increase their cytotoxic activity compared to purely organic molecules. To study the impact of the synthesized compounds on ROS production, we have measured the ROS generation in SW620 cells by the dihydrorhodamine 123 (DHR123) oxidation assay (Figure 9). However, there is no correlation between the antiproliferative potential and the ability of a compound to generate ROS.
Dihydrorhodamine 123 oxidation was used as an indicator of intracellular ROS production. For this purpose, SW620 cells were seeded in 6-well plates at a density of 10^5 cells per well. The cells were left overnight (time needed for them to attach to the surface). Then, 1 μM tested compounds were added along with 1 μM DHR123. Additionally, since DHR123 is a substrate of ABCB1 (which may interfere in this assay), 10 μM verapamil, an inhibitor of this protein, was added. The cells were cultured for an additional 4 h at 37 °C, and then the cells were harvested by trypsinization, resuspended in a complete medium, and analyzed using a LSRII flow cytometer (Becton Dickinson) in a FITC channel (530/30 nm). The results are presented as a percentage of control (median fluorescence in the presence of DMSO).

HepG2 = assay: cells; details: for IC50: read-out: IC50 HepG2, exposure time 72 h, n = 3, 95% CI given; for activity factor IC50(1)/IC50(3a–4d), HepG2: vs corresponding amine (R)-1 or (S)-1, 72 h
Source text: (§3) To assess the impact of conjugating half-sandwich complexes with amines 1 via an imine-pyridine ligand on biological activity, we examined the antiproliferative potential of (R)- and (S)-1 and organometallic conjugates 3a–d and 4a–d in selected human cancer cell lines: alveolar basal epithelial cell adenocarcinoma (A549), colorectal adenocarcinomas (Colo205 and SW620), colorectal carcinoma (HCT116), hepatocellular carcinoma (HepG2), and breast adenocarcinoma (MCF7). The choice of cell lines was dictated by results of previously published clinical trials on ispinesib.[49],[50]
(§4) Cell lines used in this study were purchased from the American Type Culture Collection via LGC Standards. Human normal lung fibroblasts (MRC-5), alveolar basal epithelial cell adenocarcinoma (A549), colorectal adenocarcinoma (Colo205), hepatocellular carcinoma (HepG2), breast adenocarcinoma (MCF7), and colorectal adenocarcinoma (SW620) and its MDR variants[55] were cultured in standard conditions (37 °C, 5% CO2, 100% relative humidity) in high glucose DMEM medium supplemented with GlutaMax, HEPES (ThermoFisher Scientific) and 10% fetal bovine serum (EURx, Poland). All cell lines were tested for Mycoplasma contamination using a MycoProbe mycoplasma detection kit (R&D System).
(§5) For this purpose, neutral red uptake assay was performed. 10^4 of cells were seeded per well of a 96-well plate and left overnight to allow cells to attach to the surface. Then, the cells were exposed to a desired concentration of tested compounds. Stock solutions were prepared in DMSO and were used immediately after preparation. The final concentration of DMSO was constant and nontoxic (0.1% v/v). After 70 h of culture, neutral red was added to the final concentration of 1 mM. After 2 h of incubation with the dye, the medium was aspirated and cells were washed with ice-cold PBS. The dye was released using 100 μL of the solubilizer (1% acetic acid in 50% ethanol) on an orbital shaker (10 min). The absorbance at 540 nm was measured using an EnVision multilabel plate reader (PerkinElmer). […] The IC90 and IC50 parameters were calculated using GraphPad Prism v9 software using the five-parameter nonlinear logistic regression model.

MCF7 = assay: cells; details: for IC50: read-out: IC50 MCF7, exposure time 72 h, n = 3, 95% CI given; for activity factor IC50(1)/IC50(3a–4d), MCF7: vs corresponding amine (R)-1 or (S)-1, 72 h
Source text: as §3, §4, §5

Colo205 = assay: cells; details: for IC50: read-out: IC50 Colo205, exposure time 72 h, n = 3, 95% CI given; for activity factor IC50(1)/IC50(3a–4d), Colo205: vs corresponding amine (R)-1 or (S)-1, 72 h
Source text: as §3, §4, §5

A549 = assay: Neutral red uptake antiproliferative assay, A549; details: for IC50: read-out: IC50 A549, exposure time 72 h, n = 3, 95% CI given; for activity factor IC50(1)/IC50(3a–4d), A549: vs corresponding amine (R)-1 or (S)-1, 72 h
Source text: as §3, §4, §5

SW620 cells [2] = assay: Cell cycle distribution by flow cytometry, SW620; assay type: cell-based, human; details: concentration equal to IC75 of (S)-1 / (R)-1, mean ± SEM, n = 3; for Cell cycle fraction G1, 24 h / Cell cycle fraction G2/M, 24 h / Cell cycle fraction S, 24 h: SW620, 24 h; for Cell cycle fraction G1, 48 h / Cell cycle fraction G2/M, 48 h / Cell cycle fraction S, 48 h: SW620, 48 h
Procedure: Ispinesib leads to the formation of monopolar mitotic spindles and a blockade of chromosome segregation in cancer cells. Using flow cytometry, we assessed the cell cycle distribution in the SW620 and SW620E cells exposed to the studied compounds for 24 and 48 h. […] Both complexes, 3c and 3d, decrease the percentage of cells in the G1/G0 phase and increase the percentage in the S and G2/M phases. […] Furthermore, prolonged exposure to the compounds increases the percentage of cells in the G2/M phase, with the most intensive effect observed for 3c and 3d.
SW620 and SW620E cells lines (vulnerable and resistant variants, respectively) were seeded in 6-well plates at a density of 10^5 cells per well. […] After 24 h, the cells were trypsinized and fixed with ice-cold 70% v/v ethanol. The cells were stained with 75 μM propidium iodide with 50 Kunitz units of RNase A in PBS for 30 min at 37 °C. All samples were analyzed using a LSRII flow cytometer (Becton Dickinson) at a PE channel ([…]). Cell cycle phase distribution was determined using a built-in cell cycle module (Watson pragmatic algorithm) by FlowJo 7.6.1 software.

SW620E = assay: Neutral red uptake antiproliferative assay, MDR line SW620E; assay type: cell-based, human; details: for IC50: exposure time 72 h, n = 3, ABCC1- and ABCB1-overexpressing MDR line; for activity factor IC50(1)/IC50(3a–4d), SW620E: vs corresponding amine (R)-1 or (S)-1, 72 h
Source text: as §1, §2

SW620M = assay: Neutral red uptake antiproliferative assay, MDR line SW620M; assay type: cell-based, human; details: for IC50: exposure time 72 h, n = 3, ABCC1-overexpressing MDR line; for activity factor IC50(1)/IC50(3a–4d), SW620M: vs corresponding amine (R)-1 or (S)-1, 72 h
Source text: as §1, §2

SW620 = assay: Neutral red uptake antiproliferative assay, SW620; assay type: cell-based, human; details: for IC50: exposure time 72 h, n = 3, 95% CI given; for activity factor IC50(1)/IC50(3a–4d), SW620: vs corresponding amine (R)-1 or (S)-1, 72 h
Source text: as §3, §4, §5

SW620D = assay: Neutral red uptake antiproliferative assay, MDR line SW620D; assay type: cell-based, human; details: for IC50: exposure time 72 h, n = 3, ABCB1-overexpressing MDR line; for activity factor IC50(1)/IC50(3a–4d), SW620D: vs corresponding amine (R)-1 or (S)-1, 72 h
Source text: as §1, §2

SW620Mito = assay: Neutral red uptake antiproliferative assay, MDR line SW620Mito; assay type: cell-based, human; details: for IC50: exposure time 72 h, n = 3, ABCG2-overexpressing MDR line; for activity factor IC50(1)/IC50(3a–4d), SW620Mito: vs corresponding amine (R)-1 or (S)-1, 72 h
Source text: as §1, §2

HCT116 = assay: cells; details: for IC50: read-out: IC50 HCT116, exposure time 72 h, n = 3, 95% CI given; for activity factor IC50(1)/IC50(3a–4d), HCT116: vs corresponding amine (R)-1 or (S)-1, 72 h
Source text: as §3, §5

[3] = system: human cancer cell lines (A549, Colo205, HCT116, HepG2, MCF7, SW620); assay: Neutral red uptake antiproliferative assay, panel of human cancer cell lines; assay type: cell-based; details: cell line not stated
Source text: as §3
as §5, with “The dye was released using 100 μL of the solubilizer (1% acetic acid in 50% ethanol) on an orbital shaker (10 min).” left out

[4] = compared with the amine of opposite configuration, (R)-1

IC50 (SW620V) [µM]	activity factor IC50(1)/IC50(3a–4d), SW620V (SW620V)	IC50 (SW620C) [µM]	activity factor IC50(1)/IC50(3a–4d), SW620C (SW620C)	IC50 (HepG2) [µM]	activity factor IC50(1)/IC50(3a–4d), HepG2 (HepG2)	IC50 (MCF7) [µM]	activity factor IC50(1)/IC50(3a–4d), MCF7 (MCF7)	IC50 (Colo205) [µM]	activity factor IC50(1)/IC50(3a–4d), Colo205 (Colo205)	IC50 (A549) [µM]	activity factor IC50(1)/IC50(3a–4d), A549 (A549)	IC50 (SW620E) [µM]	activity factor IC50(1)/IC50(3a–4d), SW620E (SW620E)	Compound	Cell cycle fraction G1, 24 h (SW620 cells [2]) [%]	Cell cycle fraction G2/M, 24 h (SW620 cells [2]) [%]	Cell cycle fraction S, 24 h (SW620 cells [2]) [%]	Cell cycle fraction G1, 48 h (SW620 cells [2]) [%]	Cell cycle fraction G2/M, 48 h (SW620 cells [2]) [%]	Cell cycle fraction S, 48 h (SW620 cells [2]) [%]	also measured
5.01	(0.687)	4.36	(0.764)	1.89	(1.27)	0.634	(6.17)	0.939	(6.46)	3.25	(2.17)	5.46	(0.741)	CC(C)[C@H](N=Cc1ccccn1)c1nc2cc(Cl)ccc2c(=O)n1Cc1ccccc1.Cc1ccc(C(C)C)cc1.F[P-](F)(F)(F)(F)F.[Cl-].[Ru+2] [Compound 4a, [(cym)Ru((S)-2)Cl]PF6]	52.8 ± 1.2	33.3 ± 1.0	13.5 ± 0.4	46.8 ± 0.7	39.1 ± 0.3	13.5 ± 0.8	ROS generation (in words) (SW620 cells [1]): increase the level of ROS; increased cytotoxicity vs corresponding amine 1, MCF7 (MCF7): approximately 6 fold; increased cytotoxicity vs corresponding amine 1, Colo205 (Colo205): approximately 6 fold; IC50 (SW620M): 3.24 µM; activity factor IC50(1)/IC50(3a–4d), SW620M (SW620M): (1.07); IC50 (SW620): 2.91 µM; activity factor IC50(1)/IC50(3a–4d), SW620 (SW620): (0.986); IC50 (SW620D): 6.01 µM; activity factor IC50(1)/IC50(3a–4d), SW620D (SW620D): (0.690); IC50 (SW620Mito): 3.68 µM; activity factor IC50(1)/IC50(3a–4d), SW620Mito (SW620Mito): (1.06); IC50 (HCT116): 3.76 µM; activity factor IC50(1)/IC50(3a–4d), HCT116 (HCT116): (2.14)
0.411	(8.37)	0.343	(9.71)	0.218	(11.01)	0.216	(18.10)	0.216	(28.1)	0.764	(9.23)	0.663	(6.11)	CC(C)[C@H](N=Cc1ccccn1)c1nc2cc(Cl)ccc2c(=O)n1Cc1ccccc1.Cc1c(C)c(C)[c-](C)c1C.F[P-](F)(F)(F)(F)F.[Cl-].[Ir+3] [Compound 4d, [(Cp*)Ir((S)-2)Cl]PF6]	51.7 ± 1.2	28.9 ± 0.4	14.3 ± 0.2	44.1 ± 0.5	40.6 ± 1.3	13.7 ± 0.4	higher cytotoxicity than (R)-1, SW620C (SW620C; [4]): 2.1 fold; higher cytotoxicity compared to (R)-1 [3]: 1.6 fold; higher cytotoxicity compared to (S)-1 [3]: 2.6 fold; IC50 (SW620M): 0.387 µM; activity factor IC50(1)/IC50(3a–4d), SW620M (SW620M): (8.94); IC50 (SW620): 0.139 µM; activity factor IC50(1)/IC50(3a–4d), SW620 (SW620): (20.65); higher cytotoxicity than (R)-1, SW620D (SW620D; [4]): 2.6 fold; IC50 (SW620D): 0.425 µM; activity factor IC50(1)/IC50(3a–4d), SW620D (SW620D): (9.76); IC50 (SW620Mito): 0.365 µM; activity factor IC50(1)/IC50(3a–4d), SW620Mito (SW620Mito): (10.71); IC50 (HCT116): 0.222 µM; activity factor IC50(1)/IC50(3a–4d), HCT116 (HCT116): (36.31)
